What all share (format): biochemical
In assay [1] the test system is Citrate plasma that was obtained from rabbits. The assay is described as follows: Prothrombin time test, CoaguChek Pro; prolongation substance added to plasma before lyophilization. As to conditions: lyophilized, rehydrated with distilled water, PT. The protocol:
Production and Use of the Inventive Control and Calibration Material for the Product CoaguChek® Pro (test for determining the prothrombin time) from Roche Diagnostics
Effect of the Prolongation Substance when Added to Plasma for the Production of the Control and Calibration Material.
Citrate plasma that was obtained from rabbits was processed further as follows.
A portion of the citrate plasma is left untreated and filled in 3.0 ml portions into siliconized vessels and lyophilized. The remainder of the plasma is used to produce preparations to which 2.0%, 3.5% and 5.0% urea (in each case % by weight) is added in each case to the plasma as the prolongation substance. These mixtures are also filled in 3.0 ml portions and lyophilized.
After rehydration of the individual preparations with distilled water, the samples obtained in this manner are added dropwise to test cards of the CoaguChek® Pro from Roche Diagnostics and the seconds which elapse until the onset of coagulation is determined on the accompanying measuring instrument CoaguChek® Pro.

In assay [2] the test system is Commercial control material level 1 for the CoaguChek system. As to the kind of experiment: Prothrombin time test, CoaguChek system; prolongation substance in the rehydration solution. As to conditions: PT. The source says: Effect of the Prolongation Substance when Added to the Rehydration Solution
[…] These solutions are subsequently measured with the CoaguChek® system (test plus measuring instrument).

Assay [3] concerns control plasma "PreClot I/II". As to the kind of experiment: aPTT (activated partial thromboplastin time), PTT a reagent, ball coagulometer KC10A. The protocol: Effect of the Inventive Prolongation Substances when Added to Control Plasmas to Monitor the Determination of aPTT (activated partial thromboplastin time)
The control plasma “PreClot I/II” from Roche Diagnostics is rehydrated according to the instructions of the manufacturer with aqueous solutions in which 0%, 2.0%, 3.5% and 5.0% N-methyl urea (in each case % by weight) are dissolved. The “PTT a reagent for the automated and manual determination of the activated partial thromboplastin time” from Roche Diagnostics is used to determine the clotting time in seconds in the control solutions obtained in this manner on a ball coagulometer KC10A from the Amelung Company (Germany).
The experimental protocol is the same as described in example 2a).
The only amendment was that the following concentrations of guanidine hydrochloride were added to the rehydration solution (in each case % by weight): 0%, 0.5% 1.0% and 1.5%.

For assay [4], the system named is lyophilized control plasma "ACT quality control CoaguChek Pro system level 1". As to the kind of experiment: Activated clotting time (ACT), ACT test cassettes of the CoaguChek Pro system. The protocol: Effect of the Prolongation Substances According to the Invention when Added to Control Plasmas to Monitor the Determination of the Activated Clotting Time (ACT)
The lyophilized control plasma “ACT quality control CoaguChek® Pro system level 1” from Roche Diagnostics was rehydrated with the supplied rehydration solution according to the instructions of the manufacturer. 0%, 0.25%, 0.5% and 0.75% guanidine hydrochloride (in each case % by weight) were added to these solutions.

Setting [5] is: 0.5 % by weight guanidine in the rehydration solution.

As for `NC(N)=O` [urea], the “time until the onset of coagulation” value in assay [1] (2.0 % by weight urea added to rabbit citrate plasma) is 22.9 s; in assay [1] (3.5 % by weight urea added to rabbit citrate plasma) it was 29.6 s; in assay [1] (5.0 % by weight urea added to rabbit citrate plasma), 41.2 s; in assay [2] (2.0 % by weight urea in the rehydration solution), 19.3 s; in assay [2] (3.0 % by weight urea in the rehydration solution) it was 28.1 s; in assay [2] (4.0 % by weight urea in the rehydration solution), 32.2 s. Moreover, the “time until the onset of coagulation” value in assay [2] (5.0 % by weight urea in the rehydration solution) is given as 37.8 s.
With `Cl.N=C(N)N` [guanidine, guanidine hydrochloride], the “time until the onset of coagulation” value in assay [3] (setting [5]) amounted to 33.1 s; in assay [3] (1.0 % by weight guanidine in the rehydration solution), 41.9 s; in assay [3] (1.5 % by weight guanidine in the rehydration solution) it was 51.8 s; in assay [4] (0.25 % by weight guanidine in the rehydration solution) it was 175.6 s; in assay [4] (setting [5]), 223.4 s; in assay [4] (0.75 % by weight guanidine in the rehydration solution), 305.6 s.
For the compound `CNC(N)=O` [N-methyl-urea], the “time until the onset of coagulation” value in assay [3] (2.0 % by weight N-methyl-urea in the rehydration solution) is recorded as 34.0 s; in assay [3] (3.5 % by weight N-methyl-urea in the rehydration solution) it was 38.6 s; in assay [3] (5.0 % by weight N-methyl-urea in the rehydration solution), 44.0 s.

(Values after patent publication US20040077092A1, “Control and calibration material for blood coagulation tests” (priority 2002, published 2004).)
